Reference: US20220204512A1, “SUBSTITUTED FUSED BICYCLIC DERIVATIVE, PREPARATION METHOD THEREFOR, AND APPLICATION THEREOF IN MEDICINES” (Jiangsu Hengrui Medicine Co., Ltd., priority 2019, published 2022)

Columns and labels:
ERK1 = target: T1, ERK1 (Homo sapiens, UniProt P27361); test: ERK1 enzyme activity test (ADP-Glo Kinase Assay); assay type: biochemical; conditions: ADP-Glo chemiluminescence
T1 construct: purchased R&D 1879-KS-010
Method: (§1) The purpose of this experiment is to detect the inhibitory ability of the compounds of the present disclosure on the ERK1 enzyme activity and to evaluate the in vitro activity of the compounds based on the IC50. The ADP-Glo™ Kinase Assay Kit was used in this experiment. The substrate was phosphorylated under the action of the enzyme and ADP was produced at the same time. The ADP-Glo reagent was added to remove the unreacted ATP in the reaction system, and the ADP produced by the reaction was detected with kinase detection reagent. In the presence of the compound, the inhibition rate of the compound was calculated by measuring the signal value.
Preparation of Enzyme and substrate: ERK1 (1879-KS-010, R&D) and substrate (AS-61777, anaspec) were prepared to 0.75 ng/p1 and 100 μM respectively in a buffer, and then the enzyme solution and the substrate solution were prepared into a mixed solution at a volume ratio of 2:1 for later use. ATP was diluted to 300 μM with buffer. The compound was dissolved in DMSO (dimethyl sulfoxide, Shanghai Titan Scientific Co., Ltd.) to prepare a stock solution with an initial concentration of 20 mM, and then Bravo was used to prepare the compound. Finally, 3 μL of a mixed solution of enzyme and substrate, and 1 μL of different concentrations of the compound (the initial concentration was 50 μM, 4-fold dilution) were added to each well of the 384-well plate, and the plate was incubated at 30° C. for 10 minutes, and finally 1 μL of 300 μM ATP solution was added to each well, and the plate was incubated at 30° C. for 2 hours. Then 5 μL of ADP-Glo was added, and the plate was incubated at 30° C. for 40 minutes. Then 10 μL of kinase detection buffer was added, and the plate was incubated at 30° C. for 40 minutes. The 384-well plate was taken out and placed in a microplate reader (BMG labtech, PHERAstar FS), and the chemiluminescence was measured by a microplate reader.
(§2) Microsoft Excel, Graphpad Prism 5 was used to process and analyze the data.

ERK2 = target: T2, ERK2 (Homo sapiens, UniProt P28482); test: ERK2 enzyme activity test (ADP-Glo Kinase Assay); assay type: biochemical; conditions: ADP-Glo chemiluminescence
T2 construct: purchased R&D 1879-KS-010
T2 sequence (P28482 2-360 limits assumed): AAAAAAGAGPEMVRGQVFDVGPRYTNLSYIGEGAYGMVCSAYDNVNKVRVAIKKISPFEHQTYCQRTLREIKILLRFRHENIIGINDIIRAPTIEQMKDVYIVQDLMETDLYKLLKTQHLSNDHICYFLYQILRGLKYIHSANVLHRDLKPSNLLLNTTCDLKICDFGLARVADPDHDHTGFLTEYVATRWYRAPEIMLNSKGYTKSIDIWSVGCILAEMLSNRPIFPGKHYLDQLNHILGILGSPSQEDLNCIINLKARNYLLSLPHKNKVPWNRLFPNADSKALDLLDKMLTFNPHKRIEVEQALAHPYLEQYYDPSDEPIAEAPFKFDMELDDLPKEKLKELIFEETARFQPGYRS
Method: as §1, with “the ERK2” for “the ERK1”, “enzyme activity,” for “enzyme activity”
Preparation of enzyme and substrate: ERK2 (1879-KS-010, R&D) and substrate (custom peptide, Gill Biochemical) were prepared to 0.75 ng/ml and 1500 μM in a buffer (40 mM Tris, 20 mM MgCl2, 0.1 mg/ml BSA, 50 μM DTT), and then the enzyme solution and the substrate solution were prepared into a mixed solution at a volume ratio of 2:1 for later use. ATP was diluted to 500 μM with buffer. The compound was dissolved in DMSO (dimethyl sulfoxide, Shanghai Titan Scientific Co., Ltd.) to prepare a stock solution with an initial concentration of 20 mM, and then Bravo was used to prepare the compound. Finally, 3 μL of a mixed solution of enzyme and substrate, and 1 μL substrate of different concentrations of the compound (the initial concentration is 50 μM, 4-fold dilution) were added to each well of the 384-well plate, and the plate was incubated at 30° C. for 10 minutes, and finally 1 μL 500 μM ATP solution was added to each well, and the plate was incubated at 30° C. for 2 hours. Then 5 μL of ADP-Glo was added, and the plate was incubated at 30° C. for 40 minutes. Then 10 μL of kinase detection buffer was added, and the plate was incubated at 30° C. for 40 minutes. The 384-well plate was taken out and placed in a microplate reader (BMG labtech, PHERAstar FS), and the chemiluminescence was measured by a microplate reader.
as §2

[1] = Pharmacokinetics assay in mice; assay type: in vivo; conditions: female, mouse, po, C57 mice, intragastric, 2 mg/kg, plasma
Method: Mice were used as test animals. The drug concentration in plasma at different time points was determined by LC/MS/MS method after administration of the compounds 1-P2, 2-P2, 4-P2, 6-P2, 9-P2, 10-P2 and 11-P2. The pharmacokinetic behavior of the compounds of the present disclosure was studied and evaluated in mice.
Sixty-three C57 mice (female, equally divided into seven groups) were purchased from Shanghai Jiesijie Laboratory Animal Co., LTD. (Certificate No.: SCXK(Shanghai)2013-0006).
A certain amount of the test compound was weighed, dissolved in 5% of DMSO by volume and 5% of tween 80, followed by the additon of 90% of normal saline to prepare a 0.1 mg/mL colorless, clear and transparent solution.
After an overnight fast, C57 mice were intragastrically administered the test compound at an administration dose of 2 mg/kg and an administration volume of 0.2 ml/10 g.
The mice were intragastrically administered the test compounds. 0.1 ml of blood was taken before the administration and at 0.25, 0.5, 1.0, 2.0, 4.0, 6.0, 8.0, 11.0 and 24.0 hours after the administration. The samples were stored in heparinized tubes, and centrifuged for 10 minutes at 3500 rpm to separate the blood plasma. The plasma samples were stored at −20° C.
The content of the test compound in the plasma of mice after intragastrical administration of the test compound at different concentrations was determined: 25 μL of […] plasma at each time point after the administration was taken, followed by the addition of 50 μL of the internal standard camptothecin solution (100ng/mL) and 200 μL of acetonitrile. The resulting solution was vortex-mixed for 5 minutes, and centrifuged for 10 minutes (4000 rpm). 4 μL of the supernatant was taken from the plasma samples for LC/MS/MS analysis.

Colo205 cells = test: In vitro proliferation inhibition test on Colo205 tumor cells (CellTiter-Glo); assay type: cell-based; conditions: Homo sapiens, COLO 205, 72 h; Colo205 cell proliferation, 3 days of culture, CTG
Method: The purpose of this experiment is to test the inhibitory activity of the compounds of the present disclosure on the proliferation of Colo205 cells (CCL-222, ATCC) in vitro. The cells were treated in vitro with different concentrations of the compounds. After 3 days of culture, the cell proliferation was tested with CTG (CellTiter-Glo® Luminescent Cell Viability Assay, Promega, Catalog No. G7573) reagent, and the in vitro activity of the compounds was evaluated according to the ICso value.
In the following, the in vitro proliferation inhibition test method of Colo205 cells is taken as an example to illustrate the method for testing the in vitro proliferation inhibitory activity of the compounds of the present disclosure on tumor cells. This method is also applicable to, but not limited to, the in vitro proliferation inhibitory activity test on other tumor cells.
Colo205 cells were digested, centrifuged and then resuspended. The single cell suspension was mixed well, and the density of viable cells was adjusted to 5.0×10^4 cells/ml with cell culture medium (RPMI1640+2% FBS), and 95 μL/well was added to a 96-well cell culture plate. Only 100 μL medium was added to the peripheral wells of the 96-well plate. The culture plate was incubated in an incubator for 24 hours (37° C., 5% CO2).
The compound was dissolved in DMSO (dimethyl sulfoxide, Shanghai Titan Scientific Co., Ltd.) and prepared as a stock solution with an initial concentration of 20 mM. The initial concentration of the small molecule compound was 2 mM, and then 4-fold diluted into 9 points, and the 10th point was DMSO. Another 96-well plate was taken, and 90 μL of cell culture medium (RPMI1640+2% FBS) was added to each well. Then 10 μL of different concentrations of the test sample was added to each well. The mixture was mixed well, and then 5μL of different concentrations of the test sample was added to the cell culture plate. Each sample has two duplicate holes. The culture plate was incubated in the incubator for 3 days (37° C., 5% CO2). The 96-well cell culture plate was taken out. 50 μL solution of CTG was added to each well, and the plate was incubated for 10 minutes at room temperature. In a microplate reader (BMG labtech, PHERAstar FS), chemiluminescence was measured with the microplate reader.
as §2

T1 sequence (P27361 whole entry): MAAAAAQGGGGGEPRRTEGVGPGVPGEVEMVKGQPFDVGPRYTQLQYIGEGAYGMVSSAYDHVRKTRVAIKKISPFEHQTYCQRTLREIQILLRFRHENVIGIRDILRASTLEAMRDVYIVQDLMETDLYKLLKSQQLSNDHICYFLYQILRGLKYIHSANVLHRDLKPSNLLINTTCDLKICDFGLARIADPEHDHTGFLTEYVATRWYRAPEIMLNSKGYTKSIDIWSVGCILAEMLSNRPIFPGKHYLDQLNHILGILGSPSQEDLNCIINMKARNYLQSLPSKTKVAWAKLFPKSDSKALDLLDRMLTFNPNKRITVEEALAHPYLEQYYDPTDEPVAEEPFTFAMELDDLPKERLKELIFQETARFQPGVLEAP

| IC50 (ERK1) [nM] | IC50 (ERK2) [nM] | IC50 (Colo205 cells) [nM] | SMILES | other results |
| --- | --- | --- | --- | --- |
| 4.6 | 1.75 |  | COc1cc(F)cc([C@@H](CO)NC(=O)[C@@H](C)N2CCn3cc(-c4nc(NC5CCOCC5)ncc4Cl)nc3C2=O)c1 [Example 3-P2, (R)-2-(2-(5-Chloro-2-((tetrahydro-2H-pyran-4-yl)amino)pyrimidin-4-yl)-8-oxo-5,6-dihydroimidazo[1,2-a]pyrazin-7(8H)-yl)-N-((S)-1-(3-fluoro-5-methoxyphenyl)-2-hydroxyethyl)propanamide] |  |
|  | 7.5 |  | COc1cc(F)cc([C@@H](CO)NC(=O)[C@@H](C)N2Cc3cc(-c4nc(NC5CCOCC5)ncc4Cl)cn3C2=O)c1 [Example 6-P2, (R)-2-(6-(5-Chloro-2-((tetrahydro-2H-pyran-4-yl)amino)pyrimidin-4-yl)-3-oxo-1H-pyrrolo[1,2-c]imidazol-2(3H)-yl)-N-((S)-1-(3-fluoro-5-methoxyphenyl)-2-hydroxyethyl)propanamide] | Vd/F ([1]; read-out: Apparent distribution volume Vz/F): 7.74 L/kg; AUC ([1]; read-out: Area under curve AUC): 1740 ng·h/mL; CL/F ([1]; read-out: Clearance CLz/F): 18.9 mL/min/kg; half-life ([1]; read-out: Half-life T1/2 (converted)): 4.74 h; Cmax ([1]; read-out: Plasma concentration Cmax): 1310 ng/mL; MRT ([1]; read-out: Residence time MRT): 1.39 h |
|  | 2.8 | 31 | C[C@H](C(=O)N[C@H](CO)c1cccc(Cl)c1)N1CCn2cc(-c3nc(NC4CCOCC4)ncc3Cl)cc2C1=O [Example 13-P2, (R)-2-(7-(5-Chloro-2-((tetrahydro-2H-pyran-4-yl)amino)pyrimidin-4-yl)-1-oxo-3,4-dihydropyrrolo[1,2-a]pyrazin-2(1H)-yl)-N—((S)-1-(3-chlorophenyl)-2-hydroxyethyl)propanamide] |  |
| 22 | 3.1 | 38 | COc1cc(F)cc([C@@H](CO)NC(=O)[C@@H](C)N2CCn3cc(-c4nc(NC5CCOCC5)ncc4C)cc3C2=O)c1 [Example 17-P2, (R)-N-((S)-1-(3-Fluoro-5-methoxyphenyl)-2-hydroxyethyl)-2-(7-(5-methyl-2-((tetrahydro-2H-pyran-4-yl)amino)pyrimidin-4-yl)-1-oxo-3,4-dihydropyrrolo[1,2-a]pyrazin-2(1H)-yl)propanamide] |  |

Second part, the molecule before the results:

| SMILES | IC50 (ERK1) [nM] | IC50 (ERK2) [nM] | IC50 (Colo205 cells) [nM] | other results |
| --- | --- | --- | --- | --- |
| Cc1cccc([C@@H](CO)NC(=O)[C@@H](C)N2CCn3cc(-c4nc(Nc5ccnn5C)ncc4C)cc3C2=O)c1 [Example 10-P2, (R)-N-((S)-2-Hydroxy-1-(m-tolyl)ethyl)-2-(7-(5-methyl-2-((1-methyl-1H-pyrazol-5-yl)amino)pyrimidin-4-yl)-1-oxo-3,4-dihydropyrrolo[1,2-a]pyrazin-2(1H)-yl)propanamide] | 8.5 | 1.1 | 100 |  |
| COc1cc(F)cc([C@@H](CO)NC(=O)[C@@H](C)N2CCn3cc(-c4nc(Nc5ccnn5C)ncc4C)cc3C2=O)c1 [Example 12-P2, (R)-N-((S)-1-(3-Fluoro-5-methoxyphenyl)-2-hydroxyethyl)-2-(7-(5-methyl-2-((1-methyl-1H-pyrazol-5-yl)amino)pyrimidin-4-yl)-1-oxo-3,4-dihydropyrrolo[1,2-a]pyrazin-2(1H)-yl)propanamide] | 9.4 | 0.9 | 82 |  |
| C[C@H](C(=O)N[C@H](CO)c1cccc(Cl)c1)N1CCc2cc(-c3nc(NC4CCOCC4)ncc3Cl)cn2C1=O [Example 16-P2, (R)-2-(6-(5-Chloro-2-((tetrahydro-2H-pyran-4-yl)amino)pyrimidin-4-yl)-1-oxo-3,4-dihydropyrrolo[1,2-c]pyrimidin-2(1H)-yl)-N-((S)-1-(3-chlorophenyl)-2-hydroxyethyl)propanamide] |  | 4.2 | 54 |  |
| Cc1cccc([C@@H](CO)NC(=O)[C@@H](C)N2CCn3cc(-c4ccnc(NC5CCOCC5)n4)cc3C2=O)c1 [Example 19-P2, (R)-N-((S)-2-Hydroxy-1-(m-tolyl)ethyl)-2-(1-oxo-7-(2-((tetrahydro-2H-pyran-4-yl)amino)pyrimidin-4-yl)-3,4-dihydropyrrolo[1,2-a]pyrazin-2(1H)-yl)propanamide] |  | 6.7 | 67 |  |
